Data taken from patent US9725462B2, “Pyridopyrimidine derivatives as protein kinase inhibitors” (Merck Patent GmbH, priority 2012, dated 2017).

biological target: T1, SYK (Homo sapiens, UniProt P43405); test: SYK Flash Plate Assay (enzyme assay); format: biochemical; conditions: Syk inhibition
T1 construct: 2.5 nM SYK, 400 nM Biotin-Aha-Aha-KEDPDYEWPSAKK
Description: The following abbreviations refer respectively to the definitions below: • aq (aqueous), h (hour), g (gram), L (liter), mg (milligram), MHz (Megahertz), min. (minute), mm (millimeter), mmol (millimole), mM (millimolar), m.p. (melting point), eq (equivalent), mL (milliliter), L (microliter), ACN (acetonitrile), AcOH (acetic acid), CDCl3 (deuterated chloroform), CD3OD (deuterated methanol), CH3CN (acetonitrile), c-hex (cyclohexane), DCC (dicyclohexyl carbodiimide), DCM (dichloromethane), DIC (diisopropyl carbodiimide), DIEA (diisopropylethyl-amine), DMF (dimethylformamide), DMSO (dimethylsulfoxide), DMSO-d6 (deuterated dimethylsulfoxide), EDC (1-(3-dimethyl-amino-propyl)-3-ethylcarbodiimide), ESI (Electro-spray ionization), EtOAc (ethyl acetate), Et2O (diethyl ether), EtOH (ethanol), HATU (dimethylamino-([1,2,3]triazolo[4,5-b]pyridin-3-yloxy)-methylene]-dimethyl-ammonium hexafluorophosphate), HPLC (High Performance Liquid Chromatography), i-PrOH (2-propanol), K2CO3 (potassium carbonate), LC (Liquid Chromatography), MeOH (methanol), MgSO4 (magnesium sulfate), MS (mass spectrometry), MTBE (Methyl tert-butyl ether), NaHCO3 (sodium bicarbonate), NaBH4 (sodium borohydride), NMM (N-methyl morpholine), NMR (Nuclear Magnetic Resonance), PyBOP (benzotriazole-1-yl-oxy-tris-pyrrolidino-phosphonium hexafluorophosphate), RT (room temperature), Rt (retention time), SPE (solid phase extraction), TBTU (2-(1-H-benzotriazole-1-yl)-1,1,3,3-tetramethyluromium tetrafluoro borate), TEA (triethylamine), TFA (trifluoroacetic acid), THF (tetrahydrofuran), TLC (Thin Layer Chromatography), UV (Ultraviolet). Description of the In Vitro Assays SYK Flash Plate Assay
The kinase assay is performed either as 384-well Flashplate assay (for e.g. Topcount measurement) or as 384-well Image-Flashplate assay (for LEADseeker measurement).
2.5 nM SYK, 400 nM Biotin-Aha-Aha-KEDPDYEWPSAKK
and 10 μM ATP (spiked with 0.3 μCi 33P-ATP/well) are incubated in a total volume of 50 μl (60 mM Hepes, 10 mM MgCl2, 1.2 mM Dithiothreitol, 0.02% Brij35, 0.1% BSA, pH 7.5) with or without test compound for 1 hours at 30° C. The reaction is stopped with 25 μl 200 mM EDTA. After 30 Min at 30° C. the liquid is removed and each well washed thrice with 100 μl 0.9% sodium chloride solution. Non-specific reaction is determined in presence of 0.1 μM Staurosporine. Radioactivity is measured with Topcount (when using Flashplates) or with LEADseeker (when using Image-Flashplates) respectively. Results (e.g. IC50-values) are calculated with program tools provided by the IT-department (e.g. Symyx Assay Explorer, Genedata Screener). In Vivo Assays CIA

Compared with N#Cc1ccc2c(-c3cncc4cnc(N[C@@H]5CCCC[C@@H]5N)nc34)c[nH]c2c1 [Compound A45, 3-[2-((1R,2S)-2-Amino-cyclohexylamino)-pyrido[4,3-d]pyrimidin-8-yl]-1H-indole-6-carbonitrile], N#Cc1ccc2[nH]cc(-c3cncc4cnc(N[C@@H]5CCCC[C@@H]5N)nc34)c2c1 [Compound A44, 3-[2-((1 R,2S)-2-Amino-cyclohexylamino)-pyrido[4,3-d]pyrimidin-8-yl]-1H-indole-5-carbonitrile] is higher in IC50: under 0.1 µM for the first, 0.1 to 1 µM for the second. The first is the more potent here.

First: Cc1cccc(-c2cnc(N)c3cnc(N[C@H]4CCCC[C@H]4N)nc23)c1 (single isomer, unassigned) [Compound A21, N2-((cis)-2-Amino-cyclohexyl)-8-m-tolyl-pyrido[4,3-d]pyrimidine-2,5-diamine]
Second: Cc1cccc(-c2cnc(N)c3cnc(N[C@@H]4CCCC[C@@H]4N)nc23)c1 (single isomer, unassigned) [Compound A22, N2-((cis)-2-Amino-cyclohexyl)-8-m-tolyl-pyrido[4,3-d]pyrimidine-2,5-diamine]
The IC50 of the first is higher: 1 to 50 µM for the first, under 0.1 µM for the second.

First: N#Cc1ccc2c(-c3cncc4cnc(N[C@@H]5CCOC[C@@H]5N)nc34)c[nH]c2c1 [Compound A69, 3[2-((3R,4R)-3-Amino-tetrahydro-pyran-4-ylamino)-pyrido[4,3-d]pyrimidin-8-yl]-1H-indole-6-carbonitrile]
Second: N[C@H]1COCC[C@H]1Nc1ncc2cncc(-c3c[nH]c4ccccc34)c2n1 [Compound A68, (3R,4R)-N4-[8-(1H-Indol-3-yl)-pyrido[4,3-d]pyrimidin-2-yl]-tetrahydro-pyran-3,4-diamine]
The IC50 of the first is higher: 0.1 to 1 µM for the first, under 0.1 µM for the second.

CC(C)Cn1cc(-c2cnc(N)c3cnc(N[C@H]4CCCC[C@H]4N)nc23)cn1 (relative stereo) [Compound A8, N2-(cis-2-Amino-cyclohexyl)-8-(1-isobutyl-1H-pyrazol-4-yl)-pyrido[4,3-d]pyrimidine-2,5-diamine] and Nc1ncc(-c2ccccc2)c2nc(N[C@@H]3CCCC[C@@H]3N)ncc12 [Compound A17, N2-((1R,2S)-2-Amino-cyclohexyl)-8-phenyl-pyrido[4,3-d]-pyrimidine-2,5-diamine] fall in the same range of IC50: 0.1 to 1 µM for the first, 0.1 to 1 µM for the second.

Compared with N#Cc1cnc(N)c2cnc(N[C@H]3CCCC[C@H]3N)nc12 (relative stereo) [Compound A9, 5-Amino-2-(cis2-amino-cyclohexylamino)-pyrido[4,3-d]pyrimidine-8-carbonitrile], Nc1ncc(-c2c[nH]c3ccccc23)c2nc(N[C@H]3CCCC[C@H]3N)ncc12 (relative stereo) [Compound A24, N2-(cis-2-Amino-cyclohexyl)-8-(1H-indol-3-yl)-pyrido[4,3-d]pyrimidine-2,5-diamine] is lower in IC50: 1 to 50 µM for the first, under 0.1 µM for the second.

First: CC(C)C[C@@H](Nc1ncc2cncc(-c3c[nH]c4cc(C(F)(F)F)ccc34)c2n1)C(N)=O [Compound A62, (2R)-4-Methyl-2-[[8-[6-(trifluoromethyl)-1H-indol-3-yl]pyrido[4,3-d]-pyrimidin-2-yl]amino]pentanamide]
Second: Cc1cccc(-c2cncc3cnc(N[C@H](CC(C)C)C(N)=O)nc23)c1 [Compound A32, (R)-4-Methyl-2-(8-m-tolyl-pyrido[4,3-d]pyrimidin-2-ylamino)-pentanoic acid amide]
The IC50 of the first is lower: under 0.1 µM for the first, 1 to 50 µM for the second.

First: NC1CCOCC1Nc1ncc2cncc(-c3c[nH]c4cc(C(F)(F)F)ccc34)c2n1 (stereo not drawn) [Compound A49, cis-N3-[8-[6-(trifluoromethyl)-1H-indol-3-yl]pyrido[4,3-d]pyrimidin-2-yl]tetrahydropyran-3,4-diamine]
Second: Cc1ncc(-c2c[nH]c3cc(C(F)(F)F)ccc23)c2nc(N[C@@H]3CCCC[C@@H]3N)ncc12 (single isomer, unassigned) [Compound A88]
The IC50 of the first is lower: under 0.1 µM for the first, 1 to 50 µM for the second. The first is the more potent here.

CN1CN(c2ncc3c(N)ncc(-c4cnn(C)c4)c3n2)[C@@H]2CCCC[C@@H]21 (single isomer, unassigned) [Compound A11, 2-((cis)-3-Methyl-octahydro-benzoimidazol-1-yl)-8-(1-methyl-1H-pyrazol-4-yl)-pyrido[4,3-d]pyrimidin-5-ylamine] and Cn1cc(-c2cnc(N)c3cnc(N4CCC(CO)CC4)nc23)cn1 [Compound A5, {1-[5-Amino-8-(1-methyl-1H-pyrazol-4-yl)-pyrido[4,3-d]pyrimidin-2-yl]-piperidin-4-yl}-methanol] fall in the same range of IC50: 1 to 50 µM for the first, 1 to 50 µM for the second.

First: Nc1ncc(-c2ccc(OC(F)(F)F)cc2)c2nc(N[C@@H]3CCCC[C@@H]3N)ncc12 (single isomer, unassigned) [Compound A14, N2-((cis)-2-Amino-cyclohexyl)-8-(4-trifluoromethoxy-phenyl)-pyrido[4,3-d]pyrimidine-2,5-diamine]
Second: Nc1ncc(-c2cc3ccccc3[nH]2)c2nc(N[C@@H]3CCCC[C@@H]3N)ncc12 (relative stereo) [Compound A10, N2-(cis-2-Amino-cyclohexyl)-8-(1H-indol-2-yl)-pyrido[4,3-d]pyrimidine-2,5-diamine]
The IC50 of the first is higher: 0.1 to 1 µM for the first, under 0.1 µM for the second.

Compared with COC[C@H](N)CNc1ncc2c(N)ncc(-c3cnn(C)c3)c2n1 [Compound A20, N2-((R)-2-Amino-3-methoxy-propyl)-8-(1-methyl-1H-pyrazol-4-yl)-pyrido[4,3-d]pyrimidine-2,5-diamine], COc1cccc2cc(-c3cnc(N)c4cnc(N[C@@H]5CCCC[C@@H]5N)nc34)[nH]c12 (relative stereo) [Compound A18, N2-(cis-2-Amino-cyclohexyl)-8-(7-methoxy-1H-indol-2-yl)-pyrido[4,3-d]pyrimidine-2,5-diamine] is lower in IC50: 0.1 to 1 µM for the first, under 0.1 µM for the second. The second is the more potent here.

COc1ccc2c(-c3cncc4cnc(N[C@H]5CCCC[C@H]5N)nc34)c[nH]c2c1 (stereo in doubt) [Compound A40, (1S,2R)-N-[8-(6-Methoxy-1H-indol-3-yl)-pyrido[4,3-d]pyrimidin-2-yl]-cyclohexane-1,2-diamine] and NC(=O)c1ccc2c(-c3cncc4cnc(N[C@@H]5CCCC[C@@H]5N)nc34)c[nH]c2c1 [Compound A77, 3-[2-((1R,2S)-2-amino-cyclohexylamino)-pyrido[4,3-d]pyrimidin-8-yl]-1H-indole-6-carboxylic acid amide] cannot be ordered by IC50: under 0.1 µM for the first, under 0.1 µM for the second.

First: N[C@H]1CCCC[C@H]1Nc1ncc2cncc(-c3cc4cccc(F)c4[nH]3)c2n1 [Compound A81]
Second: N#Cc1cccc2c(-c3cncc4cnc(N[C@@H]5CCCC[C@@H]5N)nc34)c[nH]c12 [Compound A72, 3-[2-((1R,2S)-2-amino-cyclohexylamino)-pyrido[4,3-d]pyrimidin-8-yl]-1H-indole-7-carbonitrile]
The IC50 of the first is higher: 0.1 to 1 µM for the first, under 0.1 µM for the second. The second is the more potent here.

N[C@@H]1CCCC[C@@H]1Nc1ncc2cncc(-c3cc4n(n3)CCCC4)c2n1 (stereo in doubt) [Compound A33, (1S,2R)-N-[8-(4,5,6,7-Tetrahydro-pyrazolo[1,5-a]pyridin-2-yl)-pyrido[4,3-d]pyrimidin-2-yl]-cyclohexane-1,2-diamine] and N[C@@H]1CCCC[C@@H]1Nc1ncc2cncc(-c3cc4n(n3)CCOC4)c2n1 (stereo in doubt) [Compound A43, (1S,2R)-N-[8-(6,7-Dihydro-4H-pyrazolo[5,1-c][1,4]oxazin-2-yl)-pyrido[4,3-d]pyrimidin-2-yl]-cyclohexane-1,2-diamine] fall in the same range of IC50: 1 to 50 µM for the first, 1 to 50 µM for the second.

First: COc1cccc(C#Cc2cncc3cnc(N[C@H]4CCCC[C@H]4N)nc23)c1 (stereo in doubt) [Compound A35, (1S,2R)-N-[8-(3-Methoxy-phenylethynyl)-pyrido[4,3-d]pyrimidin-2-yl]-cyclohexane-1,2-diamine]
Second: N[C@H]1CCCC[C@H]1Nc1ncc2cncc(-c3ccc4[nH]cnc4c3)c2n1 [Compound A36]
The IC50 of the first is lower: 0.1 to 1 µM for the first, 1 to 50 µM for the second.
